The source of these data is US10435369B2, “Tricyclic sulfones as ROR gamma modulators” (BRISTOL-MYERS SQUIBB COMPANY, priority 2016, dated 2019).

Each structure is given as a SMILES string.

Sequence of RORγ receptor (P51449 269-508): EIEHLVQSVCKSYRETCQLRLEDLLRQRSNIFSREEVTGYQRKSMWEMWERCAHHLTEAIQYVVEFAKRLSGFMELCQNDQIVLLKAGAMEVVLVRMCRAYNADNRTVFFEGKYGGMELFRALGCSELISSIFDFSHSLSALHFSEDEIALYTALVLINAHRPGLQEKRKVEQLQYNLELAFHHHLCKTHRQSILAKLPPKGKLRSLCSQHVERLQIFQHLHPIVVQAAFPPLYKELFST

One experiment concerns the target RORγ receptor (Homo sapiens, UniProt P51449). Kind of experiment: RORγ Gal4 reporter assay (Gal4-luciferase, inverse agonist activity). It is filed as cell-based.
Details: not given
How it is done: General RORγ Gal4 Reporter Assay
IC50 values were determined.
The term IC50 denotes the concentration needed to halve the response being measured. Take `CNC(=O)CN[C@@H]1CC[C@@]2(S(=O)(=O)c3ccc(F)cc3)c3ccc(C(F)(C(F)(F)F)C(F)(F)F)cc3CC[C@@H]12` [Example 208, 2-(((3R,3 aS,9bS)-9b-((4-fluorophenyl)sulfonyl)-7-(perfluoropropan-2-yl)-2,3,3a,4,5,9b-hexahydro-1H-cyclopenta[a]naphthalen-3-yl)amino)-N-methylacetamide]: the IC50 was found to be 16 nM.
The same measure, in the same setting: to `[2H]C([2H])([2H])C(=O)N1CC(O)(CC(=O)N[C@@H]2CC[C@@]3(S(=O)(=O)c4ccc(F)cc4)c4ccc(C(F)(C(F)(F)F)C(F)(F)F)cc4CC[C@@H]23)C1` [Example 231, 2-(1-(acetyl-d3)-3-hydroxyazetidin-3-yl)-N-((3R,3aS,9bS)-9b-((4-fluorophenyl)sulfonyl)-7-(perfluoropropan-2-yl)-2,3,3a,4,5,9b-hexahydro-1H-cyclopenta[a]naphthalen-3-yl)acetamide] belongs 65 nM.
Same read-out and setting: to `O=C(N[C@@H]1CC[C@@]2(S(=O)(=O)c3ccc(F)cc3)c3ccc(C(F)(C(F)(F)F)C(F)(F)F)cc3CC[C@@H]12)C1=CCS(=O)(=O)CC1` [Example 299, N-((3R,3aS,9bS)-9b-((4-fluorophenyl)sulfonyl)-7-(perfluoropropan-2-yl)-2,3,3a,4,5,9b-hexahydro-1H-cyclopenta[a]naphthalen-3-yl)-3,6-dihydro-2H-thiopyran-4-carboxamide 1,1-dioxide] belongs 5 nM.

The experiment is the same for the next values; noted with them: Jurkat cells stably over-expressing hRORγ; Gal4-luciferase reporter; overnight incubation; read-out: RORγ Gal4, IC50.
As for `CS(=O)(=O)N[C@@H]1CC[C@@]2(S(=O)(=O)c3ccc(F)cc3)c3ccc(C(F)(C(F)(F)F)C(F)(F)F)cc3CC[C@@H]12` [Example 201, N-((3R,3aS,9bS)-9b-((4-fluorophenyl)sulfonyl)-7-(perfluoropropan-2-yl)-2,3,3a,4,5,9b-hexahydro-1H-cyclopenta[a]naphthalen-3-yl)methanesulfonamide], the IC50 is 7 nM.
Same read-out and setting: to `CC1(O)CN(C(=O)N[C@@H]2CC[C@@]3(S(=O)(=O)c4ccc(F)cc4)c4ccc(C(F)(C(F)(F)F)C(F)(F)F)cc4CC[C@@H]23)C1` [Example 204] belongs 9 nM; to `CNC(=O)CN(CC(=O)NC)[C@@H]1CC[C@@]2(S(=O)(=O)c3ccc(F)cc3)c3ccc(C(F)(C(F)(F)F)C(F)(F)F)cc3CC[C@@H]12` [Example 209, 2,2′-(((3R,3aS,9bS)-9b-((4-fluorophenyl)sulfonyl)-7-(perfluoropropan-2-yl)-2,3,3a,4,5,9b-hexahydro-1H-cyclopenta[a]naphthalen-3-yl)azanediyl)bis(N-methylacetamide)], 166 nM; to `CN(C)[C@@H]1CC[C@@]2(S(=O)(=O)c3ccc(F)cc3)c3ccc(C(F)(C(F)(F)F)C(F)(F)F)cc3CC[C@@H]12` [Example 212], 160 nM.
`CC(C)(O)CC(=O)N[C@@H]1CC[C@@]2(S(=O)(=O)c3ccc(F)cc3)c3ccc(C(F)(C(F)(F)F)C(F)(F)F)cc3NC[C@@H]12` [Example 221]: the IC50 worked out at 45 nM.
On the same count and under the same terms, as for `CC(C)(O)CN1C(=O)CCN1C(=O)N[C@@H]1CC[C@@]2(S(=O)(=O)c3ccc(F)cc3)c3ccc(C(F)(C(F)(F)F)C(F)(F)F)cc3CC[C@@H]12` [Example 229, N-((3R,3aS,9bS)-9b-((4-fluorophenyl)sulfonyl)-7-(perfluoropropan-2-yl)-2,3,3a,4,59b-hexahydro-1H-cyclopenta[a]naphthalen-3-yl)-2-(2-hydroxy-2-methylpropyl)-3-oxopyrazolidin-1-carboxamide], the figure is 5 nM; as for `O=C1OCCN1[C@@H]1CC[C@@]2(S(=O)(=O)c3ccc(F)cc3)c3ccc(C(F)(C(F)(F)F)C(F)(F)F)cc3CC[C@@H]12` [Example 240, 3-((3R,3aS,9bS)-9b-((4-fluorophenyl)sulfonyl)-7-(perfluoropropan-2-yl)-2,3,3a,4,5,9b-hexahydro-1H-cyclopenta[a]naphthalen-3-yl)oxazolidin-2-one], 9 nM.
In the case of `O=C(CO)N1CCC(O)(C(=O)N[C@@H]2CC[C@@]3(S(=O)(=O)c4ccc(F)cc4)c4ccc(C(F)(C(F)(F)F)C(F)(F)F)cc4CC[C@@H]23)CC1` [Example 256], the IC50 amounted to 4 nM.
On the same count and under the same terms, to `CC(NC(=O)c1c[nH]cn1)[C@@H]1CC[C@@]2(S(=O)(=O)c3ccc(F)cc3)c3ccc(C(F)(C(F)(F)F)C(F)(F)F)cc3CC[C@@H]12` (stereo partly drawn) [Example 257] belongs 27 nM; to `CC(NC(=O)c1ccncn1)[C@@H]1CC[C@@]2(S(=O)(=O)c3ccc(F)cc3)c3ccc(C(F)(C(F)(F)F)C(F)(F)F)cc3CC[C@@H]12` (stereo partly drawn) [Example 261], 34 nM; to `CC(NC(=O)c1ccncn1)[C@@H]1CC[C@@]2(S(=O)(=O)c3ccc(F)cc3)c3ccc(C(F)(C(F)(F)F)C(F)(F)F)cc3CC[C@@H]12` (stereo partly drawn) [Example 262], 87 nM.
As for `CC(NC(=O)c1ccncc1)[C@@H]1CC[C@@]2(S(=O)(=O)c3ccc(F)cc3)c3ccc(C(F)(C(F)(F)F)C(F)(F)F)cc3CC[C@@H]12` (stereo partly drawn) [Example 263], the IC50 was 22 nM.
The same measure, in the same setting: to `CC(NC(=O)c1ccncc1)[C@@H]1CC[C@@]2(S(=O)(=O)c3ccc(F)cc3)c3ccc(C(F)(C(F)(F)F)C(F)(F)F)cc3CC[C@@H]12` (stereo partly drawn) [Example 264] belongs 82 nM; to `CC(NC(=O)[C@@H]1C[C@@H](F)C(=O)N1)[C@@H]1CC[C@@]2(S(=O)(=O)c3ccc(F)cc3)c3ccc(C(F)(C(F)(F)F)C(F)(F)F)cc3CC[C@@H]12` (stereo partly drawn) [Example 267], 15 nM.
Still for that read-out and setting: as for `CC(NC(=O)[C@@H]1C[C@@H](F)C(=O)N1)[C@@H]1CC[C@@]2(S(=O)(=O)c3ccc(F)cc3)c3ccc(C(F)(C(F)(F)F)C(F)(F)F)cc3CC[C@@H]12` (stereo partly drawn) [Example 268], the figure is 21 nM; as for `CC(NC(=O)[C@H](C)N)[C@@H]1CC[C@@]2(S(=O)(=O)c3ccc(F)cc3)c3ccc(C(F)(C(F)(F)F)C(F)(F)F)cc3CC[C@@H]12` (stereo partly drawn) [Example 271], 45 nM; as for `CC(NS(=O)(=O)c1cnn(C)c1)[C@@H]1CC[C@@]2(S(=O)(=O)c3ccc(F)cc3)c3ccc(C(F)(C(F)(F)F)C(F)(F)F)cc3CC[C@@H]12` (stereo partly drawn) [Example 272, N-(1-((3R,3aS,9bS)-9b-((4-fluorophenyl)sulfonyl)-7-(perfluoropropan-2-yl)-2,3,3a,4,5,9b-hexahydro-1H-cyclopenta[a]naphthalen-3-yl)ethyl)-1-methyl-1H-pyrazole-4-sulfonamide], 27 nM.
The same measure, in the same setting: to `CC(NS(=O)(=O)c1cnn(C)c1)[C@@H]1CC[C@@]2(S(=O)(=O)c3ccc(F)cc3)c3ccc(C(F)(C(F)(F)F)C(F)(F)F)cc3CC[C@@H]12` (stereo partly drawn) [Example 273] belongs 26 nM; to `CC(NS(=O)(=O)c1nc[nH]n1)[C@@H]1CC[C@@]2(S(=O)(=O)c3ccc(F)cc3)c3ccc(C(F)(C(F)(F)F)C(F)(F)F)cc3CC[C@@H]12` (stereo partly drawn) [Example 274], 62 nM.
Regarding `CC(NS(=O)(=O)c1nc[nH]n1)[C@@H]1CC[C@@]2(S(=O)(=O)c3ccc(F)cc3)c3ccc(C(F)(C(F)(F)F)C(F)(F)F)cc3CC[C@@H]12` (stereo partly drawn) [Example 275], the IC50 was found to be 65 nM.
Turning to `CS(=O)(=O)N[C@H]1C[C@H](NC(=O)[C@@H]2CC[C@@]3(S(=O)(=O)c4ccc(F)cc4)c4ccc(C(F)(C(F)(F)F)C(F)(F)F)cc4CC[C@@H]23)C1` [Example 276], the IC50 was determined as 52 nM.
Take `CS(=O)(=O)N1CCC(CNC(=O)[C@@H]2CC[C@@]3(S(=O)(=O)c4ccc(F)cc4)c4ccc(C(F)(C(F)(F)F)C(F)(F)F)cc4CC[C@@H]23)C1` (stereo partly drawn) [Example 277]: the IC50 came out at 6 nM.
On the same count and under the same terms, as for `CS(=O)(=O)N1CCC(CNC(=O)[C@@H]2CC[C@@]3(S(=O)(=O)c4ccc(F)cc4)c4ccc(C(F)(C(F)(F)F)C(F)(F)F)cc4CC[C@@H]23)C1` (stereo partly drawn) [Example 278], the figure is 7 nM.
For `CS(=O)(=O)N1CC(O)(CNC(=O)[C@@H]2CC[C@@]3(S(=O)(=O)c4ccc(F)cc4)c4ccc(C(F)(C(F)(F)F)C(F)(F)F)cc4CC[C@@H]23)C1` [Example 279], the IC50 was determined as 19 nM.
The same measure, in the same setting: to `NS(=O)(=O)N[C@H]1C[C@@H](NC(=O)[C@@H]2CC[C@@]3(S(=O)(=O)c4ccc(F)cc4)c4ccc(C(F)(C(F)(F)F)C(F)(F)F)cc4CC[C@@H]23)C1` [Example 280, (3R,3aS,9bS)-9b-((4-fluorophenyl)sulfonyl)-7-(perfluoropropan-2-yl)-N-((1s,3S)-3-(sulfamoylamino)cyclobutyl)-2,3,3a,4,5,9b-hexahydro-1H-cyclopenta[a]naphthalene-3-carboxamide] belongs 22 nM.
On to `NS(=O)(=O)N[C@H]1C[C@@H](NC(=O)[C@@H]2CC[C@@]3(S(=O)(=O)c4ccc(F)cc4)c4ccc(C(F)(C(F)(F)F)C(F)(F)F)cc4CC[C@@H]23)C1` [Example 281], for which the IC50 stood at 58 nM.
On the same count and under the same terms, as for `O=C(N[C@@H]1CC[C@@]2(S(=O)(=O)c3ccc(F)cc3)c3ccc(C(F)(C(F)(F)F)C(F)(F)F)cc3CC[C@@H]12)C1(F)CCS(=O)(=O)CC1` [Example 298, 4-fluoro-N-((3R,3aS,9bS)-9b-((4-fluorophenyl)sulfonyl)-7-(perfluoropropan-2-yl)-2,3,3a,4,5,9b-hexahydro-1H-cyclopenta[a]naphthalen-3-yl)tetrahydro-2H-thiopyran-4-carboxamide 1,1-dioxide], the figure is 7 nM.
